Experimental findings from patent publication US20060205743A1, “Protein kinase inhibitors” (priority 2003, published 2006) are described below.

MAPKAP-K2, sequence (P49137 whole entry): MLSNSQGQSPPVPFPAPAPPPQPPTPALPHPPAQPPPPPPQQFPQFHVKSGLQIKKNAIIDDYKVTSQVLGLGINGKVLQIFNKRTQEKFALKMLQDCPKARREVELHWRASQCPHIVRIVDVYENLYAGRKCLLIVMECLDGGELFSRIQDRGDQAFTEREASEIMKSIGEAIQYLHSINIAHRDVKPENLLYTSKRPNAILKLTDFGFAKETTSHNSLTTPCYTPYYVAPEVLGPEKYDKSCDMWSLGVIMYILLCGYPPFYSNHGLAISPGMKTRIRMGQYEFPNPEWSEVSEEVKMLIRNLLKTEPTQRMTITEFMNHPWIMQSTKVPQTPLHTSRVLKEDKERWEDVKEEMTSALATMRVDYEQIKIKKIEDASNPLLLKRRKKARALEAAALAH

The target in this experiment is MAPKAP-K2 (Homo sapiens, UniProt P49137). Nature of the experiment: MAPKAP-Kinase 2 Assay (33P-ATP peptide phosphorylation, filter plate). In kind it is biochemical. Set-up: key: +: active; ++: more active; +++: very active. To be noted: assays conducted at typically 1-100 μM. The procedure:
MAPKAP-Kinase 2 Assay [Compound Preparation]
Compounds are dissolved in DMSO at a concentration of 3 mM and stored in aliquots at −20° C. Compounds in DMSO from these stock aliquots are diluted in 30% DMSO to produce initial working stock solutions of 1 mM and 3 mM. Both of these stock solutions are then subjected to 1:10 serial dilutions in 30% DMSO in order to prepare 3000, 1000, 300, 100, 30, 10, 3, 1, 0.1, 0.01 μM stock solutions. 5 μl of each stock solution is used per 50 μl reaction to give final assay concentrations of 300, 100, 30, 10, 3, 1, 0.3, 0.1, 0.01, 0.001 μM.
The kinase reaction is conducted in a round-bottomed polypropylene 96-well plate. MAPKAP-K2 is diluted to 25 mU/μl in diluent buffer (50 mM Tris/HCl. pH7.5, 0.1 mM EGTA, 0.1% (v/v) β-mercaptoethanol, 1 mg/ml BSA). 5 μl compound or 30% DMSO is added to each well followed by 25 μl substrate cocktail (10 μM ATP, 30 μM peptide (KKLNRTLSVA), 0.5 μCi ^33P-γ-ATP in 50 mM Tris pH7.5, 0.1 mM EGTA, 10 mM Mg-acetate, 0.1% BME). The reaction is initiated with the addition of 20 μl enzyme solution per well or 20 μl diluent buffer without enzyme. The plate is shaken for 10 sec and then left at room temperature for 30 min. The reaction is terminated with 50 μl 150 mM phosphoric acid. 90 μl of the reaction mixture is then transferred into a 96-well P81 filter plate (Millipore) and incubated at room temperature for 5 min. The filter plate is then washed 4 times with 200 μl 75 mM phosphoric acid per well on a plate vacuum manifold (Millipore) and dried in an oven for 2-3 h. Packard MicroScint ‘0’ (30 μl) is then added to each well, the plate is mixed for 30 min and subjected to liquid scintillation counting on a Packard TopCount.
[Interpretation] %Control=(X−B)/(Tot−B)×100 %Inhibition=100−% Control X=cpm of the test compound wells B=cpm of wells without enzyme Tot=cpm of wells with DMSO vehicle only
Take `N[C@H]1CC[C@H](Nc2cc(NCc3ccc(F)c(Cl)c3)n3nccc3n2)CC1` [Compound 1]: the MAPKAP-K2 activity entry is “++”. The value for `N[C@H]1CC[C@H](Nc2cc(Nc3ccc(F)c(Cl)c3)n3nccc3n2)CC1` [Compound 2] was “+++”; that for `N[C@H]1CC[C@H](Nc2cc(Nc3ccc(Cl)c(Cl)c3)n3nccc3n2)CC1` [Compound 3] was “+++”; that for `N[C@H]1CC[C@H](Nc2cc(Nc3ccc4c(c3)OC(F)(F)O4)n3nccc3n2)CC1` [Compound 4] was “++”. The value for `COc1ccc(Nc2cc(N[C@H]3CC[C@H](N)CC3)nc3ccnn23)cc1Cl` [Compound 5] was “+++”; that for `Cc1ccc(Nc2cc(N[C@H]3CC[C@H](N)CC3)nc3ccnn23)cc1Cl` [Compound 6] was “+++”. To `Cc1ccsc1CNc1cc(N[C@H]2CC[C@H](N)CC2)nc2ccnn12` [Compound 7] belongs “++”; to `N[C@H]1CC[C@H](Nc2cc(NCc3cccc(Cl)c3)n3nccc3n2)CC1` [Compound 8], “++”; to `Cc1ccccc1Nc1cc(N[C@H]2CC[C@H](N)CC2)nc2ccnn12` [Compound 9], “+++”. Consider `N[C@H]1CC[C@H](Nc2cc(Nc3ccccc3)n3nccc3n2)CC1` [Compound 10], for which the MAPKAP-K2 activity result is “+++”. The value for `N[C@H]1CC[C@H](Nc2cc(Nc3cccc(Cl)c3)n3nccc3n2)CC1` [Compound 11] was “+++”. To `N[C@H]1CC[C@H](Nc2cc(Nc3ccc(Cl)cc3)n3nccc3n2)CC1` [Compound 12] belongs “+++”; to `N[C@H]1CC[C@H](Nc2cc(Nc3ccccc3Cl)n3nccc3n2)CC1` [Compound 13], “+++”. The value for `N[C@H]1CC[C@H](Nc2cc(NCc3ccc(Cl)cc3)n3nccc3n2)CC1` [Compound 14] was “++”; that for `CN(C)c1ccc(Nc2cc(N[C@H]3CC[C@H](N)CC3)nc3ccnn23)cc1` [Compound 15] was “+++”; that for `N[C@H]1CC[C@H](Nc2cc(Nc3ccc(F)cc3)n3nccc3n2)CC1` [Compound 16] was “+++”.

As for `COc1ccc(Nc2cc(N[C@H]3CC[C@H](N)CC3)nc3ccnn23)cc1` [Compound 17], the MAPKAP-K2 activity entry is given as “+++”. To `N[C@H]1CC[C@H](Nc2cc(Nc3ccc(F)c(Cl)c3)n3nccc3n2)CC1` [Compound 18] belongs “+”. Regarding `CN(C)c1cccc(Nc2cc(N[C@H]3CC[C@H](N)CC3)nc3ccnn23)c1` [Compound 19], the MAPKAP-K2 activity entry is given as “+++”. Take `N[C@H]1CC[C@H](Nc2cc(Nc3ccc(C(F)(F)F)cc3)n3nccc3n2)CC1` [Compound 20]: the MAPKAP-K2 activity entry is on record as “+++”.

Take `N[C@H]1CC[C@H](Nc2cc(Nc3ccc(Oc4ccccc4)cc3)n3nccc3n2)CC1` [Compound 21]: the MAPKAP-K2 activity result was “+++”. To `N[C@H]1CC[C@H](Nc2cc(Nc3ccc(F)cc3F)n3nccc3n2)CC1` [Compound 22] belongs “+++”. As to `CC(Nc1cc(N[C@H]2CC[C@H](N)CC2)nc2ccnn12)c1ccccc1` (stereo partly drawn) [Compound 23], the MAPKAP-K2 activity entry is listed as “+”. Consider `CC(Nc1cc(N[C@H]2CC[C@H](N)CC2)nc2ccnn12)c1ccc(F)cc1` (stereo partly drawn) [Compound 24], for which the MAPKAP-K2 activity entry was “+”. To `CC(=O)NC1CCC(Nc2cc(Nc3ccc(F)c(Cl)c3)n3nccc3n2)CC1` (stereo not drawn) [Compound 25] belongs “+”. `CSc1ccc(Nc2cc(N[C@H]3CC[C@H](N)CC3)nc3ccnn23)cc1` [Compound 26]: the MAPKAP-K2 activity entry is listed as “+++”. The value for `CS(=O)(=O)NC1CCC(Nc2cc(Nc3ccc(F)c(Cl)c3)n3nccc3n2)CC1` (stereo not drawn) [Compound 27] was “+”. Turning to `O=C(NC1CCC(Nc2cc(Nc3ccc(F)c(Cl)c3)n3nccc3n2)CC1)c1ccccc1` (stereo not drawn) [Compound 28], the MAPKAP-K2 activity result is “+”. Turning to `NC1CCC(Nc2cc(NCCc3ccccc3)n3nccc3n2)CC1` (stereo not drawn) [Compound 29], the MAPKAP-K2 activity entry is reported as “++”. The value for `NC1CCC(Nc2cc(NCCOc3ccccc3)n3nccc3n2)CC1` (stereo not drawn) [Compound 31] was “+”; that for `N#Cc1cccc(Nc2cc(NC3CCC(N)CC3)nc3ccnn23)c1` (stereo not drawn) [Compound 32] was “+++”; that for `CC(C)(C)c1ccc(Nc2cc(NC3CCC(N)CC3)nc3ccnn23)cc1` (stereo not drawn) [Compound 34] was “++”.

Consider `CCOc1ccc(Nc2cc(NC3CCC(N)CC3)nc3ccnn23)cc1` (stereo not drawn) [Compound 35], for which the MAPKAP-K2 activity entry is “+++”. Take `CCCc1ccc(Nc2cc(NC3CCC(N)CC3)nc3ccnn23)cc1` (stereo not drawn) [Compound 36]: the MAPKAP-K2 activity result was “+++”. Regarding `CC(C)c1ccc(Nc2cc(NC3CCC(N)CC3)nc3ccnn23)cc1` (stereo not drawn) [Compound 37], the MAPKAP-K2 activity result is listed as “+++”. As for `CNC(=O)NC1CCC(Nc2cc(Nc3ccc(F)c(Cl)c3)n3nccc3n2)CC1` (stereo not drawn) [Compound 38], the MAPKAP-K2 activity entry was “+”. Consider `NC1CCC(Nc2cc(NCc3ccc(Cl)c(Cl)c3)n3nccc3n2)CC1` (stereo not drawn) [Compound 39], for which the MAPKAP-K2 activity result is given as “++”. Consider `NC1CCC(Nc2cc(Nc3cccc(I)c3)n3nccc3n2)CC1` (stereo not drawn) [Compound 40], for which the MAPKAP-K2 activity result is reported as “+++”. The value for `NC1CCC(Nc2cc(Nc3ccc(Oc4ccc(Cl)cc4)cc3)n3nccc3n2)CC1` (stereo not drawn) [Compound 41] was “+++”; that for `NC1CCC(Nc2cc(Nc3ccc(Oc4cccc(C(F)(F)F)c4)cc3)n3nccc3n2)CC1` (stereo not drawn) [Compound 42] was “+++”; that for `Cc1ccc(Nc2cc(NC3CCC(N)CC3)nc3ccnn23)cc1C` (stereo not drawn) [Compound 43] was “+++”. Consider `Cc1cccc(Nc2cc(NC3CCC(N)CC3)nc3ccnn23)c1` (stereo not drawn) [Compound 44], for which the MAPKAP-K2 activity result is given as “+++”. Regarding `Cc1cccc(C)c1Nc1cc(NC2CCC(N)CC2)nc2ccnn12` (stereo not drawn) [Compound 45], the MAPKAP-K2 activity entry was “++”. The value for `NC1CCC(Nc2cc(Nc3cccc(Oc4ccccc4)c3)n3nccc3n2)CC1` (stereo not drawn) [Compound 46] was “+++”; that for `COc1ccccc1Nc1cc(NC2CCC(N)CC2)nc2ccnn12` (stereo not drawn) [Compound 47] was “++”; that for `C=CCNc1cc(NC2CCC(N)CC2)nc2ccnn12` (stereo not drawn) [Compound 48] was “++”. To `O=C(Nc1ccccc1)NC1CCC(Nc2cc(Nc3ccc(F)c(Cl)c3)n3nccc3n2)CC1` (stereo not drawn) [Compound 49] belongs “+”; to `CN1CCN(Nc2cc(Nc3ccc(F)c(Cl)c3)n3nccc3n2)CC1` [Compound 50], “+”. Regarding `NC1CCC(Nc2cc(Nc3ccc4c(c3)OCO4)n3nccc3n2)CC1` (stereo not drawn) [Compound 51], the MAPKAP-K2 activity result is “+++”.

`NC1CCC(Nc2cc(Nc3ccc(OCc4ccccc4)cc3)n3nccc3n2)CC1` (stereo not drawn) [Compound 52]: the MAPKAP-K2 activity result was “+++”. Consider `NC1CCC(Nc2cc(NCc3cccc(I)c3)n3nccc3n2)CC1` (stereo not drawn) [Compound 53], for which the MAPKAP-K2 activity entry is on record as “++”. To `CCOc1ccccc1Nc1cc(NC2CCC(N)CC2)nc2ccnn12` (stereo not drawn) [Compound 54] belongs “++”; to `NC1CCC(Nc2cc(Nc3ccc4c(c3)OC(F)(F)O4)n3nccc3n2)CC1` (stereo not drawn) [Compound 55], “++”. To `CN1CCC(Nc2cc(Nc3ccc(F)c(Cl)c3)n3nccc3n2)CC1` [Compound 56] belongs “++”; to `CNC(=S)N[C@H]1CC[C@H](Nc2cc(Nc3ccc(F)c(Cl)c3)n3nccc3n2)CC1` [Compound 57], “+”.

Turning to `C=C(C)CNc1cc(NC2CCC(N)CC2)nc2ccnn12` (stereo not drawn) [Compound 58], the MAPKAP-K2 activity result is on record as “+++”.

Consider `C#CCNc1cc(NC2CCC(N)CC2)nc2ccnn12` (stereo not drawn) [Compound 59], for which the MAPKAP-K2 activity result is “+++”. On to `N[C@H]1CC[C@H](Nc2cc(Nc3ccc(Cl)cc3Cl)n3nccc3n2)CC1` [Compound 60], for which the MAPKAP-K2 activity entry is “+++”. To `NC1CCCC(Nc2cc(Nc3ccc(F)c(Cl)c3)n3nccc3n2)C1` (stereo not drawn) [Compound 61] belongs “+”; to `COc1cccc(Nc2cc(N[C@H]3CC[C@H](N)CC3)nc3ccnn23)c1` [Compound 62], “+++”; to `N[C@H]1CC[C@H](Nc2cc(Nc3cccc(OC(F)(F)F)c3)n3nccc3n2)CC1` [Compound 63], “+++”. The value for `N[C@H]1CC[C@H](Nc2cc(Nc3cccc(OCc4ccccc4)c3)n3nccc3n2)CC1` [Compound 64] was “+++”; that for `CCOc1cccc(Nc2cc(N[C@H]3CC[C@H](N)CC3)nc3ccnn23)c1` [Compound 65] was “+++”.
